Results from ChEMBL document CHEMBL1131960, “Simple mono-derivatisation of the aryl moiety of D4A and DDA-based phosphoramidate prodrugs significantly enhances their anti-HIV potency in cell culture” (Bioorg Med Chem Lett, 1999).

Legend:
CCRF-CEM [1] = test: Compound was evaluated for its concentration (potency) to inhibit the growth of CEM cells.; format: functional; details: Homo sapiens
[2] = Compound was evaluated for its ability to inhibit the growth of HIV-2 in CEM cell culture (CC50/EC50); format: functional, CCRF-CEM
[3] = Compound was evaluated for its lipophilicity by 1-octanol/water (phosphate buffer, pH 7.0) and the partition coefficient (log P) was reported.; format: physicochemical
[4] = Compound was evaluated for its ability to inhibit the growth of HIV-1 in CEM cell culture (CC50/EC50); format: functional, CCRF-CEM
CCRF-CEM [5] = test: Compound was evaluated for its effective concentration (potency) to inhibit the growth of HIV-2 in CEM cell culture.; format: functional, cell-based; details: Homo sapiens
CCRF-CEM [6] = test: Compound was evaluated for its effective concentration (potency) to inhibit the growth of HIV-1 in CEM cell culture.; format: functional, cell-based; details: Homo sapiens
esterase = test: Compound was evaluated for esterase half-life (t 1/2) period using Pig Liver Esterase (PLE) assay; format: ADME, Sus scrofa

| SMILES | logD [3] | EC50 (CCRF-CEM [5]) [nM] | EC50 (CCRF-CEM [6]) [nM] | half-life (esterase) [h] | CC50 (CCRF-CEM [1]) [nM] | SI [2] | SI [4] |
| --- | --- | --- | --- | --- | --- | --- | --- |
| Nc1ncnc2c1ncn2[C@H]1CC[C@@H](CO)O1 | -0.22 | 8000 | 4000 | – | > 100000 | >13 | >25 |
| Nc1ncnc2c1ncn2[C@H]1C=C[C@@H](CO)O1 | -0.36 | – | – | – | 91000 | 4.6 | 4.6 |
| COC(=O)C(C)NP(=O)(OCC1C=CC(n2cnc3c(N)ncnc32)O1)Oc1ccc(I)cc1 (stereo unspecified) | 2.11 | 1.7 | 2.3 | 62 | 860 | 506 | 374 |

Second part, led by results:

| logD [3] | EC50 (CCRF-CEM [5]) [nM] | EC50 (CCRF-CEM [6]) [nM] | half-life (esterase) [h] | SMILES | CC50 (CCRF-CEM [1]) [nM] | SI [2] | SI [4] |
| --- | --- | --- | --- | --- | --- | --- | --- |
| 0.89 | 35 | 16 | 301 | COC(=O)C(C)NP(=O)(OCC1CCC(n2cnc3c(N)ncnc32)O1)Oc1ccccc1 (stereo unspecified) | 2570 | 73 | 161 |
| 1.72 | 2.7 | 3.2 | 100 | COC(=O)C(C)NP(=O)(OCC1C=CC(n2cnc3c(N)ncnc32)O1)Oc1ccc(Br)cc1 (stereo unspecified) | 840 | 311 | 263 |
| 1.71 | 3.3 | 2.3 | 75 | COC(=O)C(C)NP(=O)(OCC1CCC(n2cnc3c(N)ncnc32)O1)Oc1cccc(Br)c1 (stereo unspecified) | 560 | 170 | 243 |
| 2.07 | 2.7 | 2.2 | 62 | COC(=O)C(C)NP(=O)(OCC1CCC(n2cnc3c(N)ncnc32)O1)Oc1cccc(I)c1 (stereo unspecified) | 430 | 159 | 195 |
| 0.94 | – | 5.5 | 301 | COC(=O)C(C)NP(=O)(OCC1C=CC(n2cnc3c(N)ncnc32)O1)Oc1ccccc1 (stereo unspecified) | 3800 | 211 | 691 |
